Publication PMC5668376, “Stochastic palmitoylation of accessible cysteines in membrane proteins revealed by native mass spectrometry” (Nature Communications, 2017)

Biological target: T1, bacteriorhodopsin (Halobacterium salinarum, UniProt P02945)
T1 construct: gene bop; synthetic gene (GeneArt), start codon from vector, C-terminal triple StrepII tag, transiently expressed retinal-free in HEK293-EBNA1, purified in DDM; cysteine-free parent protein
T1 sequence (P02945 14-262): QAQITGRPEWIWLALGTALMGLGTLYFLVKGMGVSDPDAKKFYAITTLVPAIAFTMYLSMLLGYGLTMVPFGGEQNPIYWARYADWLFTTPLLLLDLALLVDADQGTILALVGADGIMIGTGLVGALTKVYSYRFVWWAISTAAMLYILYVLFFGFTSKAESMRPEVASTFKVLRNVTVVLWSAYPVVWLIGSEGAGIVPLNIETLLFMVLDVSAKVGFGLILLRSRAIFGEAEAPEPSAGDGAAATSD
Experiment: native mass spectrometry of purified protein
Type: binding
Conditions: retinal added during purification; DDM micelles; 150 mM ammonium acetate pH 7.5; isomer not stated

CC1=C(/C=C/C(C)=C/C=C/C(C)=C/C=O)C(C)(C)CCC1 [retinal]
native mass spectrometry of purified protein: Upon addition of retinal during purification, bacteriorhodopsin mass spectra indicated peaks corresponding to the mass
